Laboratory results published in publication PMC11864979, “First-in-class ultralong-target-residence-time p38α inhibitors as a mitosis-targeted therapy for colorectal cancer” (Nature Cancer, 2025).
Read-outs that look alike come from different tables or passages of the source.

Columns and labels:
Assay in all cases: selectivity profiling in a panel of 340 wild-type kinases (Reaction Biology Europe)
Type in all cases: binding
[1] = molecular target: T1, 340 wild-type kinases (Homo sapiens, UniProt Q5VT25)
T1 construct: purchased Reaction Biology Europe

[2] = molecular target: T2, 340 wild-type kinases (Homo sapiens, UniProt Q00537)
T2 construct: purchased Reaction Biology Europe

[3] = molecular target: T3, 340 wild-type kinases (Homo sapiens, UniProt P21802)
T3 construct: purchased Reaction Biology Europe

[4] = molecular target: T4, 340 wild-type kinases (Homo sapiens, UniProt Q12866)
T4 construct: purchased Reaction Biology Europe
T4 sequence (Q12866 21-999): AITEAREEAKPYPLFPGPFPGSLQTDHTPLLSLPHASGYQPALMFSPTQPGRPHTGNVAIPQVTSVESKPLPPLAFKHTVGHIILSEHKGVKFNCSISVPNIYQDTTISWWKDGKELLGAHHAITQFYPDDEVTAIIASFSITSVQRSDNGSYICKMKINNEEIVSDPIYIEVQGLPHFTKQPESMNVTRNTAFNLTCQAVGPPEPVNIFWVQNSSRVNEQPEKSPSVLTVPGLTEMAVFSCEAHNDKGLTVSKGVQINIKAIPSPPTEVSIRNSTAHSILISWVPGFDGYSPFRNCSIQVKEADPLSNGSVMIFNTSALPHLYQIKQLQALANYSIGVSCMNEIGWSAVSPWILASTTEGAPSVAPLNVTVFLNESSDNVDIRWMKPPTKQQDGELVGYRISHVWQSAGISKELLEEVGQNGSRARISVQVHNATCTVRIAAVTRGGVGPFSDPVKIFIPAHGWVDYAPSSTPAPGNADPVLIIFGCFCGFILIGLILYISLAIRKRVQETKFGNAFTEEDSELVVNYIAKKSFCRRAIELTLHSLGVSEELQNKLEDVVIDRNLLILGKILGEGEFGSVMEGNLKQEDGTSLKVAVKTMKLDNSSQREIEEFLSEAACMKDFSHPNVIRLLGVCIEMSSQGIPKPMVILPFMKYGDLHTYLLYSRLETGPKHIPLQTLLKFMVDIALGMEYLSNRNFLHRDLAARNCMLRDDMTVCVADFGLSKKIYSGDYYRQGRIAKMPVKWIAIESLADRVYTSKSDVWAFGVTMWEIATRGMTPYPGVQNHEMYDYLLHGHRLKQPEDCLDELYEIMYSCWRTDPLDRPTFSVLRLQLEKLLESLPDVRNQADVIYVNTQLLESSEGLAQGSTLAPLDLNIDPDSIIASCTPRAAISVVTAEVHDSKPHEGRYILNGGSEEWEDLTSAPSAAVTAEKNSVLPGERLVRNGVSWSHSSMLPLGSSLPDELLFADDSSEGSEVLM

[5] = molecular target: T5, 340 wild-type kinases (Homo sapiens, UniProt Q15139)
T5 construct: purchased Reaction Biology Europe
T5 sequence (Q15139 1-912): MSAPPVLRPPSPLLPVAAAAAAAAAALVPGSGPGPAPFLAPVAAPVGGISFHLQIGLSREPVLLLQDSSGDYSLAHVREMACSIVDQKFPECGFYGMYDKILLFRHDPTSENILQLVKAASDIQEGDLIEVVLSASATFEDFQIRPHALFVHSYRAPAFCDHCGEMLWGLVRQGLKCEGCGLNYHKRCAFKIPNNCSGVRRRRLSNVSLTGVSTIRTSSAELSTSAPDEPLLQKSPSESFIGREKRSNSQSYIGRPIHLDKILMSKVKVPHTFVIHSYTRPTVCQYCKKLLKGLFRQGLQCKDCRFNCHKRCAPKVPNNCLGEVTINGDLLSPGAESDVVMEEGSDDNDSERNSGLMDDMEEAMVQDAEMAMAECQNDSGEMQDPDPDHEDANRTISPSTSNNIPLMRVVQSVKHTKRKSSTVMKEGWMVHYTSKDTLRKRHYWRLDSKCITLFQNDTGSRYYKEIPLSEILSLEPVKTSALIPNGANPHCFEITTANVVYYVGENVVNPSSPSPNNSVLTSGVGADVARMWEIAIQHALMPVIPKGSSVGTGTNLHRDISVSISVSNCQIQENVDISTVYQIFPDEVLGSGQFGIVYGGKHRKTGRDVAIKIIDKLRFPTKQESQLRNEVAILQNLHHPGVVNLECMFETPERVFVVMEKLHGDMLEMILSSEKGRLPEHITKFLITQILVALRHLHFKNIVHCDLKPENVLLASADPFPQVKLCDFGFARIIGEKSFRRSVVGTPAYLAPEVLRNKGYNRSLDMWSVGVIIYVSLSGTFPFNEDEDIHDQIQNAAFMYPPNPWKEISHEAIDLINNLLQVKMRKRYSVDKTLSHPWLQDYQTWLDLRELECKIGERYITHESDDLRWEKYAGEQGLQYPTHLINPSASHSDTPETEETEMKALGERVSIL

T1 sequence (Q5VT25 whole entry): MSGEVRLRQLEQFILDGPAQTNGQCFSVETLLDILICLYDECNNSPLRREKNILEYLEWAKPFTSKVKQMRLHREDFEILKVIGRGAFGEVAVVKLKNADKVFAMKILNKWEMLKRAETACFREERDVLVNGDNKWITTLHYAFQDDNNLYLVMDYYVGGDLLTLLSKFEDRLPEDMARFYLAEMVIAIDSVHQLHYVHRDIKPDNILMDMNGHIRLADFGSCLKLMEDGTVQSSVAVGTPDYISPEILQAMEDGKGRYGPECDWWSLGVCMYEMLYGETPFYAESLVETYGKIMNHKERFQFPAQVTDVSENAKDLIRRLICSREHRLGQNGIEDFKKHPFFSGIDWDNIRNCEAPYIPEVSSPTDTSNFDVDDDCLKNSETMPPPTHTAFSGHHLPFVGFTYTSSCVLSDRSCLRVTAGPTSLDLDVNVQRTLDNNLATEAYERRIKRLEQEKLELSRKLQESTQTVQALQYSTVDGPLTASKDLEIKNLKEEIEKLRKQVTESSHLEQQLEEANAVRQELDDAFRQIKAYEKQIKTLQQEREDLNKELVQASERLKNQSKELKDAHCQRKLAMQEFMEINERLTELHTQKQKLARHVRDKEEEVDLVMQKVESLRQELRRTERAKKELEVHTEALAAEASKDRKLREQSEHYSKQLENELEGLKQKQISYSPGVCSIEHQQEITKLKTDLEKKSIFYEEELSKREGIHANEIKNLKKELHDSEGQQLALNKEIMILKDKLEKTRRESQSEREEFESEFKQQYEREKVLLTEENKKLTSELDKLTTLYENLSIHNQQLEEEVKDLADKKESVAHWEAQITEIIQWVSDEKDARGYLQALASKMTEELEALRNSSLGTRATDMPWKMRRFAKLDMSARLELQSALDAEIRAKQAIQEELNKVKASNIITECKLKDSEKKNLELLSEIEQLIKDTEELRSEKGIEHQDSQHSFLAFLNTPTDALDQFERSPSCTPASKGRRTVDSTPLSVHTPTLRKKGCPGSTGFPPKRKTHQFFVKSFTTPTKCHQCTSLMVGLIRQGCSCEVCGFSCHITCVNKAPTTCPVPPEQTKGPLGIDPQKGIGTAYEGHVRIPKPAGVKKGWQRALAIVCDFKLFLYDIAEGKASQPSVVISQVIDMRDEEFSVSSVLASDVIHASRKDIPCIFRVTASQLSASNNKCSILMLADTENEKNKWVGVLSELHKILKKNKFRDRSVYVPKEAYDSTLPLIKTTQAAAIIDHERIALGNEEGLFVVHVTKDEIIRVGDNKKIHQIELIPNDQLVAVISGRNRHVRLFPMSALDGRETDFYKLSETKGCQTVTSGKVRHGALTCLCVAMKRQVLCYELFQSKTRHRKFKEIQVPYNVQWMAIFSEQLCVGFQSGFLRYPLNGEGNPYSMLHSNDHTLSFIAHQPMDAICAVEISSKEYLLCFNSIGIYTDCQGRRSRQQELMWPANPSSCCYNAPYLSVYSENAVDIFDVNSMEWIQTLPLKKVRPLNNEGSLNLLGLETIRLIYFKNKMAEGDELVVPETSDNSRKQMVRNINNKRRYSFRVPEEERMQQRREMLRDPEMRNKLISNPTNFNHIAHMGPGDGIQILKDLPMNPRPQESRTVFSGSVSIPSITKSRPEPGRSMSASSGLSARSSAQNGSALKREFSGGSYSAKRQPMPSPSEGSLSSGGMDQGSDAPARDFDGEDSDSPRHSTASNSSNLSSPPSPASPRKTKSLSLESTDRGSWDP
T2 sequence (Q00537 whole entry): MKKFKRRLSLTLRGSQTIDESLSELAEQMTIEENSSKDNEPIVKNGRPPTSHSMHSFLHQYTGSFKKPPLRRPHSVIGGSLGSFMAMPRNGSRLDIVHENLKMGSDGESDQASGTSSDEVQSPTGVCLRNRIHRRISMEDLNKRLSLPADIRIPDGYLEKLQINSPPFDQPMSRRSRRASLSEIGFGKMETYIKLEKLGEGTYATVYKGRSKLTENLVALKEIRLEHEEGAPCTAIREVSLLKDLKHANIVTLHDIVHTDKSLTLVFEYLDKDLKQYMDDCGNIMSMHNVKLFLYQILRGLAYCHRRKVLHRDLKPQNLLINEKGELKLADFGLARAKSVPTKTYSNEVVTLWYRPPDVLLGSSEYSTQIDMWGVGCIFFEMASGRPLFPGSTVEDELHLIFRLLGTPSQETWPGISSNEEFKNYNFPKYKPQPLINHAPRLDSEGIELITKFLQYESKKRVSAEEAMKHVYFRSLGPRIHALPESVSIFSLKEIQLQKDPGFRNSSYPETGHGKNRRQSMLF
T3 sequence (P21802 22-821): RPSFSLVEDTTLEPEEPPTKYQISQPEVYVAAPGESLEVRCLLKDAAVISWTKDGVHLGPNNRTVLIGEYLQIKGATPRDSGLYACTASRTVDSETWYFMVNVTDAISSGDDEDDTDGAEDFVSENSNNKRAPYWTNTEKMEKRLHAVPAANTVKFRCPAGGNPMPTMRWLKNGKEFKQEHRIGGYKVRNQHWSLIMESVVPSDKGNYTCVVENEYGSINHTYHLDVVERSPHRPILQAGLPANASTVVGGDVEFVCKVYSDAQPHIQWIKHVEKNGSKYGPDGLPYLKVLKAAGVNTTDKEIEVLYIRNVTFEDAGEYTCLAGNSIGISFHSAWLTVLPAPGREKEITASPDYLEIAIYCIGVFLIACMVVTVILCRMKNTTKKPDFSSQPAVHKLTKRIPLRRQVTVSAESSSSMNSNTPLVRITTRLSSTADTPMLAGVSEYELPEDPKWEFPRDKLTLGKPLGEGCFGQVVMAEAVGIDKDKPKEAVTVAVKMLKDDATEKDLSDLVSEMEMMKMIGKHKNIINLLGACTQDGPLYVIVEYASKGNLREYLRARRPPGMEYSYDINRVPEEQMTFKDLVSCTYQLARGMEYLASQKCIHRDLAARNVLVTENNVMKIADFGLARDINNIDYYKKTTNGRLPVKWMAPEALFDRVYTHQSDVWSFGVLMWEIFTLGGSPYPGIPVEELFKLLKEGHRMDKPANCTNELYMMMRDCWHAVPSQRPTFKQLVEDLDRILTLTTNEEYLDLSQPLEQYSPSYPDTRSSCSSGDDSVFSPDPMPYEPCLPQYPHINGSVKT

CNC(=O)c1ccc2c(c1)C(=O)c1ccc(Nc3ccc(F)c(NC(=O)C4CC4)c3)cc1CC2 [Compound 2015]
remaining activity at 0.2 µM ([1]; 0.2 µM 2015, read-out: CDC42BPA residual activity): 118% | remaining activity at 1 µM ([1]; 1 µM 2015, read-out: CDC42BPA residual activity): 112% | remaining activity at 0.2 µM ([1]; CDC42BPA, 0.2 µM, read-out: residual activity): 118% | remaining activity at 1 µM ([1]; CDC42BPA, 1 µM, read-out: residual activity): 112% | remaining activity at 0.2 µM ([2]; 0.2 µM 2015, read-out: CDK17/p35NCK residual activity): 94.8% | remaining activity at 1 µM ([2]; 1 µM 2015, read-out: CDK17/p35NCK residual activity): 93.6% | remaining activity at 1 µM ([2]; CDK17/p35NCK, 1 µM, read-out: residual activity): 93.6% | remaining activity at 0.2 µM ([3]; 0.2 µM 2015, read-out: FGFR2 residual activity): 94.1% | remaining activity at 1 µM ([3]; 1 µM 2015, read-out: FGFR2 residual activity): 96% | remaining activity at 0.2 µM ([3]; FGFR2, 0.2 µM, read-out: residual activity): 94.1% | remaining activity at 1 µM ([3]; FGFR2, 1 µM, read-out: residual activity): 96% | remaining activity at 0.2 µM ([4]; 0.2 µM 2015, read-out: MERTK residual activity): 88.3% | remaining activity at 1 µM ([4]; 1 µM 2015, read-out: MERTK residual activity): 97% | remaining activity at 0.2 µM ([4]; MERTK, 0.2 µM, read-out: residual activity): 88.3% | remaining activity at 1 µM ([4]; MERTK, 1 µM, read-out: residual activity): 97% | remaining activity at 0.2 µM ([5]; 0.2 µM 2015, read-out: PKCmu residual activity): 98.1% | remaining activity at 1 µM ([5]; 1 µM 2015, read-out: PKCmu residual activity): 95.1% | remaining activity at 0.2 µM ([5]; PKCmu, 0.2 µM, read-out: residual activity): 98.1% | remaining activity at 1 µM ([5]; PKCmu, 1 µM, read-out: residual activity): 95.1%
